# Target: T1, hα7-wt nAChR stably expressed in the GH4C1 cell line (Homo sapiens, UniProt P36544)
# T1 construct: expressed in transfected cells
# Experiment: Ca2+ flux imaging (FLIPR) of PAM activity with choline as agonist
# Type: cell-based
# Conditions: efficacy relative to 100 μM choline alone (defined as 1); peak fluorescence, fluo-4AM; compounds tested 0.1 μM to 30 μM, efficacy criterion at 10 μM
# Text: Stable expression in mammalian cells in general and rat GH4C1 cells in particular, of cDNA clones encoding the human α7 wild-type sequence (hα7-wt nAChR) and in which the coding region is placed downstream of a promoter results in the appearance of functional α7 nAChRs on the surface of the mammalian cells. This technique has provided a powerful means of assessing the function of α7 wild-type protein. Given the fact that the cation permeability of the α7 nicotinic receptor preferentially favours calcium, fluorescent imaging of Ca^2+ flux through the hα7-wt nAChR stably expressed in the GH4C1 cell line was used as a first means of assaying modulator activity of the compounds of the present invention.
# a) Assay Buffer • Hanks buffered saline solution (HBSS, Invitrogen, Belgium), supplemented with 10 mM HEPES (Invitrogen, Belgium), CaCl2 to a final concentration of 5 mM, 0.1% Bovine serum albumin (Sigma-Aldrich NV, Belgium), 2.5 mM probenecid (Sigma-Aldrich NV, Belgium).
# b) Calcium-Sensitive Dye—Fluo-4AM • Fluo-4AM (Molecular Probes, USA) was dissolved in DMSO containing 10% Pluronic acid (Molecular Probes, USA) to give a stock solution which was aliquoted and could be stored at −20° C. until later use. On the day of the experiment Fluo-4AM stock was defrosted and diluted in DMEM/F12 (Invitrogen, Belgium) containing 2.5 mM probenicid and 0.1% BSA to give a final concentration of 2 μM.
# c) 96-well Plates • BD Biocoat poly-D-lysine 96-well black/clear bottom plates (BD Biosciences, Belgium)
# d) Calcium Flux Measurement • A Fluorimetric Imaging Plate Reader (FLIPR, Molecular Devices Corporation, Sunnyvale, USA) was used to measure intracellular free-calcium flux signals
# Monolayers of hα7-wt nAChR-expressing cells were grown in multi-well plates, in particular black-sided, transparent bottomed 96 well plates coated with poly-D-lysine for 24 hours prior to loading with a fluorescent calcium indicator, in a particular embodiment loading with fluo-3 or fluo-4AM for up to 90 minutes, in an even more particular embodiment loading with fluo-4AM for up to 90 minutes, and in a preferred embodiment loading with fluo-4AM for 60 minutes.
# In a particular embodiment, the α7 nicotinic receptor agonist was choline, a more particular embodiment choline applied at a sub-maximal concentration of 100 μM.
# A control response to choline was calculated on each plate from the difference in peak fluorescence in wells receiving either choline or assay buffer alone. Compounds of the present invention were tested at a concentration range from 0.1 μM to 30 μM.
# The activity ranges are defined as follows; A denotes an activity range from 1.1 till 1.5, B denotes an activity range from 1.5 till 2.0, C denotes an activity range from 2.0 till 3.0, D denotes an activity range from 3.0 till 4.5 and E denotes an efficacy from at least 4.5.
# T1 sequence (P36544 23-502): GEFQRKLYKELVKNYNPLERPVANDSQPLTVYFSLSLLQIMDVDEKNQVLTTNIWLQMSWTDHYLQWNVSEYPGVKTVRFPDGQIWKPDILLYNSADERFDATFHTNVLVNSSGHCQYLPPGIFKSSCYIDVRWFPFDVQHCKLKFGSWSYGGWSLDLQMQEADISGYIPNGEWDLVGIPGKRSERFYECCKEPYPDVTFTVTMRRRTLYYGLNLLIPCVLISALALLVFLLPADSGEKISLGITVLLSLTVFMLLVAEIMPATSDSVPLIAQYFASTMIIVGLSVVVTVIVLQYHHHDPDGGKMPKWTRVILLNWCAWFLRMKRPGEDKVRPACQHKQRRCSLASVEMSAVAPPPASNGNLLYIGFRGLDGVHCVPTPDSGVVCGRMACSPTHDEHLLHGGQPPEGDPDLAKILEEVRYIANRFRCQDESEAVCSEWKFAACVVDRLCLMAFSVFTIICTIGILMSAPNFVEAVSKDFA
row,SMILES,Activity Range
1,COc1ccc(-c2csc(Nc3cccc4[nH]ncc34)n2)c(OC)c1 [Compound 35],C (C denotes an activity range from 2.0 till 3.0)
2,FC(F)(F)c1cncc(Nc2nc(-c3cnc4ccccn34)cs2)c1 [Compound 47],C (C denotes an activity range from 2.0 till 3.0)
3,FC(F)(F)c1cccc(Nc2nc(-c3cncnc3)cs2)c1 [Compound 73],C (C denotes an activity range from 2.0 till 3.0)
4,Cc1ccc(Nc2nc(-c3cccnc3)c(F)s2)cc1 [Compound 120],C (C denotes an activity range from 2.0 till 3.0)
5,"CC(C)NC(=O)Cc1sc(Nc2cc(Cl)ccc2Cl)nc1-c1ccncc1 [Compound 161, 2-[(2,5-dichlorophenyl)amino]-N-(1-methylethyl)-4-(4-pyridinyl)-5-thiazoleacetamide]",E (E denotes an efficacy from at least 4.5)
6,COc1ccc(OC)c(-c2csc(Nc3ccc(Cl)cc3Cl)n2)c1 [Compound 36],C (C denotes an activity range from 2.0 till 3.0)
7,"CNC(=O)Cc1sc(Nc2cc(Cl)c(OC)cc2OC)nc1-c1ccc2c(c1)OCCO2 [Compound 97, 2-[(5-chloro-2,4-dimethoxyphenyl)amino]-4-(2,3-dihydro-1,4-benzodioxin-6-yl)-N-methyl-5-thiazoleacetamide]",E (E denotes an efficacy from at least 4.5)
8,N#Cc1ccc(Nc2nc(-c3cnc4ccccn34)cs2)cc1 [Compound 69],D (D denotes an activity range from 3.0 till 4.5)
9,Cc1ccc(Nc2nc(-c3cccnc3)c(C)s2)cc1 [Compound 138],E (E denotes an efficacy from at least 4.5)
10,CCOC(=O)c1sc(Nc2cc(Cl)ccc2Cl)nc1C1CC1 [Compound 152],E (E denotes an efficacy from at least 4.5)
11,COc1ccc(OC)c(-c2csc(Nc3cccc4[nH]ncc34)n2)c1 [Compound 34],C (C denotes an activity range from 2.0 till 3.0)
12,Nc1cncc(-c2csc(Nc3ccc(F)c(C(F)(F)F)c3)n2)c1 [Compound 10],A (A denotes an activity range from 1.1 till 1.5)
13,COc1ccc(Nc2nc(-c3cc(Cl)c(OC)cc3OC)c(CO)s2)c(OC)c1 [Compound 126],E (E denotes an efficacy from at least 4.5)
14,COc1cc(OC)c(Nc2nc(-c3ccncc3)c(CN3CCOCC3)s2)cc1Cl [Compound 100],D (D denotes an activity range from 3.0 till 4.5)
15,"COCCNC(=O)Cc1sc(Nc2cc(Cl)ccc2Cl)nc1-c1ccncc1 [Compound 106, 2-[(2,5-dichlorophenyl)amino]-N-(2-methoxyethyl)-4-(4-pyridinyl)-5-thiazoleacetamide]",E (E denotes an efficacy from at least 4.5)
16,CNC(=O)Cc1sc(Nc2cccc(C(F)(F)F)c2)nc1-c1ccccc1 [Compound 131],E (E denotes an efficacy from at least 4.5)
17,Clc1ccc(Nc2nc(-c3ccccc3Cl)cs2)c(Cl)c1 [Compound 37],C (C denotes an activity range from 2.0 till 3.0)
18,COC(=O)c1sc(Nc2cc(Cl)ccc2Cl)nc1C(C)C [Compound 149],E (E denotes an efficacy from at least 4.5)
19,OCc1sc(Nc2ccc(F)c(C(F)(F)F)c2)nc1-c1cccnc1 [Compound 91],C (C denotes an activity range from 2.0 till 3.0)
20,COc1ccc(-c2csc(Nc3ccccc3OC)n2)c(OC)c1 [Compound 38],D (D denotes an activity range from 3.0 till 4.5)
21,COc1cc(OC)c(Nc2nc(-c3ccncc3)c(CO)s2)cc1Cl [int. 25],C (C denotes an activity range from 2.0 till 3.0)
22,"CCOC(=O)c1sc(Nc2cc(Cl)ccc2Cl)nc1-c1ccccc1 [Compound 174, 5-Thiazolecarboxylic acid, 2-[(2,5-dichlorophenyl)amino]-4-phenyl-, ethyl ester]",E (E denotes an efficacy from at least 4.5)
23,Cc1ccc(-c2nc(Nc3cccc(C(F)(F)F)c3)sc2CO)cn1 [Compound 129],E (E denotes an efficacy from at least 4.5)
24,COc1cc(OC)c(Nc2nc(-c3ccncc3)c(CN3CCCC3)s2)cc1Cl [Compound 99],D (D denotes an activity range from 3.0 till 4.5)

row,SMILES,Activity Range
1,COc1ccc(Nc2nc(-c3cnc4ccccn34)cs2)c(OC)c1 [Compound 50],D (D denotes an activity range from 3.0 till 4.5)
2,Fc1ccc(Nc2nc(-c3cnc4sccn34)cs2)cc1C(F)(F)F [Compound 44],C (C denotes an activity range from 2.0 till 3.0)
3,"CCOC(=O)c1sc(Nc2ccc(Cl)cc2Cl)nc1-c1ccccc1 [int. 6, 2-(2,4-Dichloro-phenylamino)-4-phenyl-thiazole-5-carboxylic acid ethyl ester]",E (E denotes an efficacy from at least 4.5)
4,CNC(=O)c1sc(Nc2cc(Cl)c(OC)cc2OC)nc1-c1ccncc1 [Compound 105],E (E denotes an efficacy from at least 4.5)
5,COc1ccc(Nc2nc(-c3ccccc3)c(CO)s2)cc1 [Compound 127],E (E denotes an efficacy from at least 4.5)
6,CC(C)c1nc(Nc2cccc(C(F)(F)F)c2)sc1CO [Compound 116],E (E denotes an efficacy from at least 4.5)
7,COc1ccc(Nc2nc(C(F)(F)F)c(CO)s2)cc1 [Compound 118],E (E denotes an efficacy from at least 4.5)
8,COC(=O)c1sc(Nc2cccc(C(F)(F)F)c2)nc1C(C)C [Compound 148],E (E denotes an efficacy from at least 4.5)
9,CCOC(=O)c1sc(Nc2ccc(OC)cc2)nc1C [Compound 144],E (E denotes an efficacy from at least 4.5)
10,Fc1sc(Nc2cccc(C(F)(F)F)c2)nc1-c1cnc2ccccn12 [Compound 80],C (C denotes an activity range from 2.0 till 3.0)
11,"Cc1ccccc1Nc1nc(-c2ccccc2)c(C(=O)Nc2cccnc2)s1 [Compound 172, 5-Thiazolecarboxamide, 2-[(2-methylphenyl)amino]-4-phenyl-N-3-pyridinyl-]",E (E denotes an efficacy from at least 4.5)
12,Fc1ccc(Nc2nc(-c3cccnc3)c(F)s2)cc1C(F)(F)F [Compound 81],C (C denotes an activity range from 2.0 till 3.0)
13,CSc1cccc(Nc2nc(-c3cnc4ccccn34)cs2)c1 [Compound 52],C (C denotes an activity range from 2.0 till 3.0)
14,COc1ccc(Nc2nc(-c3cnc4ccccn34)cs2)cc1OC [Compound 55],B (B denotes an activity range from 1.5 till 2.0)
15,CNC(=O)Cc1sc(Nc2cc(Cl)c(OC)cc2OC)nc1-c1ccc(F)c(F)c1 [Compound 134],E (E denotes an efficacy from at least 4.5)
16,Fc1ccc(Nc2nc(-c3cccnc3)c(Br)s2)cc1C(F)(F)F [Compound 84],C (C denotes an activity range from 2.0 till 3.0)
17,COCCc1nc(Nc2cccc(C(F)(F)F)c2)sc1C(=O)OC [Compound 159],E (E denotes an efficacy from at least 4.5)
18,Cc1ccc(-c2csc(Nc3cccc(C(F)(F)F)c3)n2)cn1 [Compound 68],E (E denotes an efficacy from at least 4.5)
19,"NC(=O)Cc1sc(Nc2cccc(C(F)(F)F)c2)nc1-c1ccc(Cl)cc1Cl [Compound 18, 2-[4-(2,4-Dichloro-phenyl)-2-(3-trifluoromethyl-phenylamino)-thiazol-5-yl]-acetamide]",B (B denotes an activity range from 1.5 till 2.0)
20,"O=C(Nc1cccnc1)c1sc(Nc2ccccc2)nc1-c1ccccc1 [Compound 171, 5-Thiazolecarboxamide, 4-phenyl-2-(phenylamino)-N-3-pyridinyl-]",E (E denotes an efficacy from at least 4.5)
21,Cc1cccc(Nc2nc(-c3cccnc3)cs2)c1 [Compound 76],C (C denotes an activity range from 2.0 till 3.0)
22,Cc1cncc(-c2nc(Nc3cccc(Cl)c3Cl)sc2CO)c1 [Compound 128],E (E denotes an efficacy from at least 4.5)
23,"CNC(=O)c1sc(Nc2cc(Cl)c(OC)cc2OC)nc1-c1ccc(F)c(F)c1 [Compound 107, 2-[(5-chloro-2,4-dimethoxyphenyl)amino]-4-(3,4-difluorophenyl)-N-methyl-5-thiazolecarboxamide]",E (E denotes an efficacy from at least 4.5)
